# Reference: US9510595B2, “Pesticidal mixtures” (Syngenta Participations AG, priority 2012, dated 2016)
# Tests used:
# [1] = system: Heliothis virescens (Tobacco Budworm); assay: Heliothis virescens egg/larval mortality on artificial diet, 24-well plate; assay type: in vivo; settings: for 1-1 observed control %: 1-1 alone; for 2-7 Observe control %: 2-7 alone; for DMET observed control %: DMET alone; for SPAT observed control %: SPAT alone
# Method: Heliothis virescens (Tobacco Budworm)
# Eggs (0-24 h old) are placed in 24-well microtiter plate on artificial diet and treated with test solutions (DMSO) by pipetting. After an incubation period of 4 days, samples are checked for larval mortality.
# (§1) When a compound applied alone gave no control at a particular rate, it is assumed that lower rates of that compound alone also give no control. DMET=deltamethrin, SPAT=spirotetramat, 1-1 is compound 1 in Table 1, 2-7 is compound 7 in Table 2.
# [2] = system: Tetranychus urticae (Two-Spotted Spider Mite); assay: Tetranychus urticae mixed population mortality on sprayed bean leaf discs; assay type: in vivo; settings: for 2-7 observed control %: 2-7 alone; for SPAT observed control %: SPAT alone
# Text: Tetranychus urticae (Two-Spotted Spider Mite)
# Bean leaf discs on agar in 24-well microtiter plates are sprayed with test solutions (DMSO). After drying, the leaf discs are infested with mite populations of mixed ages. 8 days later, discs are checked for mixed population mortality.
# as §1
structure (smiles),measurement,setting,value
N#Cc1cc(C2=NOC(c3cc(Cl)cc(Cl)c3)(C(F)(F)F)C2)ccc1-n1cncn1 (racemic) [1-1],1-1 observed control %,[1]; 0.78 ppm,0%
same,1-1 observed control %,[1]; 1.56 ppm,0%
same,1-1 observed control %,[1]; 3.125 ppm,45%
same,1-1 observed control %,[1]; 6.25 ppm,85%
same,1-1 observed control %,[1]; 12.5 ppm,85%
same,1-1 observed control %,[1]; 25 ppm,90%
N#Cc1cc(C2=NCC(c3cc(Cl)c(Cl)c(Cl)c3)(C(F)(F)F)C2)ccc1-n1cncn1 (racemic) [2-7],2-7 Observe control %,[1]; 0.025 ppm,0%
same,2-7 Observe control %,[1]; 0.05 ppm,10%
same,2-7 Observe control %,[1]; 0.1 ppm,55%
same,2-7 Observe control %,[1]; 0.2 ppm,80%
same,2-7 Observe control %,[1]; 0.4 ppm,90%
same,2-7 observed control %,[2]; 0.187 ppm,0%
same,2-7 observed control %,[2]; 0.375 ppm,0%
same,2-7 observed control %,[2]; 0.75 ppm,25%
same,2-7 observed control %,[2]; 1.5 ppm,75%
same,2-7 observed control %,[2]; 3.0 ppm,80%
"CC1(C)[C@H](C(=O)O[C@H](C#N)c2cccc(Oc3ccccc3)c2)[C@@H]1C=C(Br)Br [DMET, deltamethrin]",DMET observed control %,[1]; 0.0125 ppm,0%
same,DMET observed control %,[1]; 0.025 ppm,0%
same,DMET observed control %,[1]; 0.05 ppm,0%
same,DMET observed control %,[1]; 0.1 ppm,0%
same,DMET observed control %,[1]; 0.2 ppm,0%
same,DMET observed control %,[1]; 0.4 ppm,0%
same,DMET observed control %,[1]; 0.8 ppm,0%
"CCOC(=O)OC1=C(c2cc(C)ccc2C)C(=O)N[C@]12CC[C@@H](OC)CC2 [SPAT, spirotetramat]",SPAT observed control %,[1]; 1.56 ppm,0%
same,SPAT observed control %,[1]; 3.12 ppm,0%
same,SPAT observed control %,[1]; 3.125 ppm,0%
same,SPAT observed control %,[1]; 6.25 ppm,0%
same,SPAT observed control %,[1]; 12.5 ppm,0%
same,SPAT observed control %,[1]; 25 ppm,0%
same,SPAT observed control %,[1]; 50 ppm,0%
same,SPAT observed control %,[1]; 100 ppm,0%
same,SPAT observed control %,[1]; 200 ppm,60%
same,SPAT observed control %,[2]; 1.56 ppm,0%
same,SPAT observed control %,[2]; 3.125 ppm,0%
same,SPAT observed control %,[2]; 12.5 ppm,65%
same,SPAT observed control %,[2]; 25 ppm,80%
same,SPAT observed control %,[2]; 50 ppm,85%
same,SPAT observed control %,[2]; 100 ppm,85%
same,SPAT observed control %,[2]; 200 ppm,85%
